Here are results for 6 compounds from ChEMBL document CHEMBL1143604, “Structure-activity relationship studies optimizing the antiproliferative activity of novel cyclic somatostatin analogues containing a restrained cyclic beta-amino acid” (J Med Chem, 2005).

In the test the test system is A-431. Description: Antiproliferative activity against human epidermiod carcinoma A431 cells. It counts as functional, cell-based.
As for `CCCC[C@@H]1NC(=O)[C@@H](Cc2c[nH]c3ccccc23)NC(=O)[C@H](Cc2ccc(O)cc2)NC(=O)[C@@H]2CCCN2C(=O)[C@H](Cc2ccccc2)NC(=O)[C@H]([C@@H](C)O)NC1=O`, half-maximal inhibition (IC50) required 32 µM.

Take `CCCC[C@@H]1NC(=O)[C@@H](Cc2c[nH]c3ccccc23)NC(=O)[C@H](Cc2ccc(O)cc2)NC(=O)[C@H]2C[C@@H](C)C=C(C)[C@H]2NC(=O)[C@H]([C@@H](C)O)NC1=O`: the IC50 (usually the concentration that gives 50% inhibition) was above 100 µM.

As for `CCCC[C@@H]1NC(=O)[C@@H](Cc2c[nH]c3ccccc23)NC(=O)[C@@H](Cc2ccc(O)cc2)NC(=O)[C@H]2C[C@@H](C)C=C(C)[C@H]2NC(=O)[C@H]([C@@H](C)OC(c2ccccc2)(c2ccccc2)c2ccccc2)NC1=O`, the midpoint of inhibition, the IC50, lay at 6 µM. This lies in the single-digit micromolar range.

As to `CCCC[C@@H]1NC(=O)[C@H](Cc2c[nH]c3ccccc23)NC(=O)[C@@H](Cc2ccc(O)cc2)NC(=O)[C@@H]2CCCN2C(=O)[C@H](Cc2ccccc2)NC(=O)[C@@H]([C@@H](C)OC(c2ccccc2)(c2ccccc2)c2ccccc2)NC1=O`, the IC50 came to 26 µM. This IC50 is about 4.3-fold higher than that of the compound before.

In turn, `C[C@@H](O)[C@@H]1NC(=O)C(CCCCN)NC(=O)[C@@H](Cc2c[nH]c3ccccc23)NC(=O)C(Cc2ccccc2)NC(=O)[C@@H]2CCCN2C(=O)C(Cc2ccccc2)NC1=O` (single isomer, unassigned) returned a concentration for half-maximal inhibition (IC50) above 50 µM.

Consider `CCCC[C@@H]1NC(=O)[C@@H](Cc2c[nH]c3ccccc23)NC(=O)[C@H](Cc2ccc(O)cc2)NC(=O)[C@H]2C[C@@H](C)C=C(C)[C@H]2NC(=O)[C@H]([C@@H](C)OC(c2ccccc2)(c2ccccc2)c2ccccc2)NC1=O`, for which half-maximal inhibition (IC50) required 5 µM.
